Laboratory results reported in article PMC4286721, “Structural insights into the catalytic mechanism of aldehyde-deformylating oxygenases” (Protein & Cell, 2014).

Experiments:
[1] = molecular target: T1, SeADO (cADO from Synechococcus elongates PCC7942) (Synechococcus elongatus, UniProt Q54764); test: X-ray crystal structure (WT1, […] A; also WT0, […] A, iron-free); GC-QqQ-MS/MS of extracted ligand; assay type: binding; conditions: co-purified ligand in substrate channel; head group bound to Fe2 of di-iron center in WT1; modelled as long-chain fatty alcohol, C18 identified by MS
T1 construct: gene Synpcc7942_1593
T1 sequence (Q54764 1-231): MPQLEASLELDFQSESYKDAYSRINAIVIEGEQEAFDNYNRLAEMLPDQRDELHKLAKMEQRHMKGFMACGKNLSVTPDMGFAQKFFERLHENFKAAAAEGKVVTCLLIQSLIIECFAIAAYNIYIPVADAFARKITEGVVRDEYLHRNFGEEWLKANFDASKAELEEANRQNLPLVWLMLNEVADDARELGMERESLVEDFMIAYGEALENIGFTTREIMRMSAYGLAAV

[2] = molecular target: T1, SeADO (cADO from Synechococcus elongates PCC7942); test: GC of n-hexane in headspace; assay type: biochemical; conditions: 2 mM n-heptanal, 4% DMSO, ferredoxin, ferredoxin reductase, 800 uM NADPH, 60 uM ferrous ammonium sulphate, O2, HEPES pH 7.2, 37 C

| Compound | X-ray crystal structure (WT1, 2.3 A; also WT0, 2.26 A, iron-free); GC-QqQ-MS/MS [1] | GC of n-hexane in headspace [2] |
| --- | --- | --- |
| CCCCCCCCCCCCCCCCCCO [Lred, C18 fatty alcohol] | the dominant of the remaining components was identified as a C18 fatty alcohol |  |
| CCCCCCC=O [n-heptanal] |  | N-heptanal was selected as the substrate to measure the activity of cADO proteins. |
